Counter-ions that a name gives are not always drawn.
What was measured:
[1] = Toxicity test in mouse (LD50, intraperitoneal application); conditions: in vivo, ip
Source text: The results of these toxicity tests on mouse and rat are shown in the following table as well as the effective dosage: […]

[2] = Arzneimittelforschung 27(1977) p. 132; cited from earlier work
[3] = Antibiotiki 24(1979) p.659; cited from earlier work

NC(=O)CN1CCCC1=O [Piracetam]
LD50 [1]: > 2000 mg/kg

Cc1cc(=O)[nH]c(=O)[nH]1 [6-methyluracil]
protection against radiation [2]: can protect against radiation
antibiotic action [3]: has an antibiotic action

Cc1c(NC(=O)COc2ccc(Cl)cc2)c(=O)n(C)c(=O)n1C [Example 3]
LD50 [1]: > 1700 mg/kg

Cc1[nH]c(=O)n(C)c(=O)c1NC(=O)COc1ccc(Cl)cc1 [Example 1, 5-(p-Chlorophenoxy-acetamido)-1,4-dimethyluracil]
LD50 [1]: > 1700 mg/kg

CN(C)CCOC(=O)COc1ccc(Cl)cc1 [Meclofenoxate HCl]
LD50 [1]: 856 mg/kg

Cc1[nH]c(=O)[nH]c(=O)c1NC(=O)COc1ccc(Cl)cc1 [Example 2, 5-(p-Chlorophenoxy-acetamido)-4-methyluracil]
LD50 [1]: 800 mg/kg

Cn1c(N)c(NC(=O)COc2ccc(Cl)cc2)c(=O)n(C)c1=O [Example 4, 4-amino-5-(p-Chlorophenoxy-acetamido)-1,3-dimethyluracil]
LD50 [1]: > 1700 mg/kg
